US20150252022A1, “RETINOIC ACID RECEPTOR-RELATED ORPHAN RECEPTOR MODULATORS AND USES THEREOF” (INNOV17 LLC, priority 2014, published 2015)

What was measured:
Format in all cases: cell-based
Settings in all cases: 72 h; human CD4+ T cells under TH17-polarizing conditions, 3 days, supernatant ELISA
IL-21 = test: Human TH17 Cytokine Inhibition as measured by ELISA (IL-21)
Experimental: (§1) Peripheral blood mononuclear cells (PBMCs) were sourced from freshly prepared leukocyte enriched plasma (buffy coat) from healthy donors (New York Blood Center). PBMCs were isolated by density gradient centrifugation using Ficoll-Paque™ PLUS (GE Healthcare). Human CD4+ T cells were seeded into 96-well plates (5×10^4 cells/well) and activated with plate-bound anti-human (h)-CD3 antibody and soluble h-aCD28 (both at 1 ug/ml; eBioscience) and differentiated into TH17 cells with 20 ng/mL h-IL-6, 5 ng/mL h-TGF-β1, 10 ng/mL h-IL-23 (eBioscience) and 10 ng/mL IL-1β (Miltenyi Biotec) in serum-free TexMACS Medium (Miltenyi Biotec) supplemented with 1% Penicillin/Streptomycin (Lonza) for 3 days. CD4+ T cells propagated under TH17-polarizing conditions were cultured in the presence or absence of various concentrations of compounds with a final concentration of 0.1% DMSO. Supernatants were collected and stored at −20° C. until assayed for IL-17A, IL-17F and IL-21 levels by “Ready-Set-Go” ELISA kits (eBioscience) as per manufacturer's instructions. Endpoint absorbance was read at 450 nm using a microplate reader (Perkin Elmer).

IL-17A = test: Human TH17 Cytokine Inhibition as measured by ELISA (IL-17A)
Experimental: as §1

IL-17F = test: Human TH17 Cytokine Inhibition as measured by ELISA (IL-17F)
Experimental: as §1

| Structure (SMILES) | IC50 (IL-21) [µM] | IC50 (IL-17A) [µM] | IC50 (IL-17F) [µM] |
| --- | --- | --- | --- |
| Cc1cc2cc(-c3cn[nH]c3)ccc2n1CC1CC(C)N(C(=O)CCc2ccccc2)C1 (racemic) [Example 131, rac-1-(2-methyl-4-((2-methyl-5-(1H-pyrazol-4-yl)-1H-indol-1-yl)methyl)pyrrolidin-1-yl)-3-phenylpropan-1-one] | < 10 | < 10 | < 10 |
| C[C@H]1C[C@@H](Cn2ccc3cc(-c4cn[nH]c4)ccc32)CN1C(=O)CCc1ccccc1 (relative stereo) [Example 127, cis-1-(4-((5-(1H-pyrazol-4-yl)-1H-indol-1-yl)methyl)-2-methylpyrrolidin-1-yl)-3-phenylpropan-1-one] | < 10 | < 10 | < 10 |
| O=C(c1ccccc1)N1CCC(CN2CCc3cc(-c4cn[nH]c4)ccc32)C1 (centres unmarked) [Example 9, (3-((5-(1H-pyrazol-4-yl)indolin-1-yl)methyl)pyrrolidin-1-yl)(phenyl)methanone] | > 10 | < 10 | > 10 |
| O=C(CCc1ccccc1)N1CCC(CN2CCc3cc(-c4cn[nH]c4)ccc32)C1 (centres unmarked) [Example 11, 1-(3-((5-(1H-pyrazol-4-yl)indolin-1-yl)methyl)pyrrolidin-1-yl)-3-phenylpropan-1-one] | < 10 | < 10 | < 10 |
| O=C(C1CCCCC1)N1CCC(CN2CCc3cc(-c4cn[nH]c4)ccc32)C1 (centres unmarked) [Example 12, (3-((5-(1H-pyrazol-4-yl)indolin-1-yl)methyl)pyrrolidin-1-yl)(cyclohexyl)methanone] | > 10 | < 10 | < 10 |
| O=C(CC1CCCCC1)N1CCC(CN2CCc3cc(-c4cn[nH]c4)ccc32)C1 (centres unmarked) [Example 13, 1-(3-((5-(1H-pyrazol-4-yl)indolin-1-yl)methyl)pyrrolidin-1-yl)-2-cyclohexylethanone] | > 10 | < 10 | < 10 |
| CC(C)C(=O)N1CCC(CN2CCc3cc(-c4cn[nH]c4)ccc32)C1 (centres unmarked) [Example 15, 1-(3-((5-(1H-pyrazol-4-yl)indolin-1-yl)methyl)pyrrolidin-1-yl)-2-methylpropan-1-one] | < 10 | > 10 | > 10 |
| CC1CC(CN2CCc3cc(-c4cn[nH]c4)ccc32)CN1C(=O)c1ccccc1 (centres unmarked) [Example 24, (4-((5-(1H-pyrazol-4-yl)indolin-1-yl)methyl)-2-methylpyrrolidin-1-yl)(phenyl)methanone] | < 10 | < 10 | < 10 |
| CC1CC(CN2CCc3cc(-c4cn[nH]c4)ccc32)CN1C(=O)CCc1ccccc1 (centres unmarked) [Example 26, 1-(4-((5-(1H-pyrazol-4-yl)indolin-1-yl)methyl)-2-methylpyrrolidin-1-yl)-3-phenylpropan-1-one] | < 10 | < 10 | < 10 |
| CC1CC(CN2CCc3cc(-c4cn[nH]c4)ccc32)CN1C(=O)C1CCCCC1 (centres unmarked) [Example 27, (4-((5-(1H-pyrazol-4-yl)indolin-1-yl)methyl)-2-methylpyrrolidin-1-yl)(cyclohexyl)methanone] | < 10 | < 10 | < 10 |
| CC(C)C(=O)N1CC(CN2CCc3cc(-c4cn[nH]c4)ccc32)CC1C (centres unmarked) [Example 30, 1-(4-((5-(1H-pyrazol-4-yl)indolin-1-yl)methyl)-2-methylpyrrolidin-1-yl)-2-methylpropan-1-one] | < 10 | < 10 | < 10 |
| O=C(c1ccccc1)N1CCC(CN2CCc3cc(-c4cn[nH]c4)ccc32)CC1 [Example 39, (4-((5-(1H-pyrazol-4-yl)indolin-1-yl)methyl)piperidin-1-yl)(phenyl)methanone] | > 10 | < 10 | < 10 |
| CC(C)CC(=O)N1CCC(CN2CCc3cc(-c4cn[nH]c4)ccc32)CC1 [Example 44, 1-(4-((5-(1H-pyrazol-4-yl)indolin-1-yl)methyl)piperidin-1-yl)-3-methylbutan-1-one] | > 10 | < 10 | < 10 |
| O=C(c1ccccc1)N1CCC(Cn2ccc3cc(-c4cn[nH]n4)ccc32)CC1 [Example 130, (4-((5-(2H-1,2,3-triazol-4-yl)-1H-indol-1-yl)methyl)piperidin-1-yl)(phenyl)methanone] |  | < 10 | < 10 |

Further lines, results first:

| IC50 (IL-21) [µM] | IC50 (IL-17A) [µM] | IC50 (IL-17F) [µM] | Structure (SMILES) |
| --- | --- | --- | --- |
| < 10 | < 10 | < 10 | C[C@@H]1C[C@@H](Cn2ccc3cc(-c4cn[nH]c4)ccc32)CN1C(=O)CCc1ccccc1 (relative stereo) [Example 129, trans-1-(4-((5-(1H-pyrazol-4-yl)-1H-indol-1-yl)methyl)-2-methylpyrrolidin-1-yl)-3-phenylpropan-1-one] |
| < 10 | < 10 | < 10 | O=C(Cc1ccccc1)N1CCC(CN2CCc3cc(-c4cn[nH]c4)ccc32)C1 (centres unmarked) [Example 10, 1-(3-((5-(1H-pyrazol-4-yl)indolin-1-yl)methyl)pyrrolidin-1-yl)-2-phenylethanone] |
| > 10 | < 10 | < 10 | CC(C)CC(=O)N1CCC(CN2CCc3cc(-c4cn[nH]c4)ccc32)C1 (centres unmarked) [Example 14, 1-(3-((5-(1H-pyrazol-4-yl)indolin-1-yl)methyl)pyrrolidin-1-yl)-3-methylbutan-1-one] |
| < 10 | < 10 | < 10 | CC1CC(CN2CCc3cc(-c4cn[nH]c4)ccc32)CN1C(=O)Cc1ccccc1 (centres unmarked) [Example 25, 1-(4-((5-(1H-pyrazol-4-yl)indolin-1-yl)methyl)-2-methylpyrrolidin-1-yl)-2-phenylethanone] |
| < 10 | < 10 | < 10 | CC1CC(CN2CCc3cc(-c4cn[nH]c4)ccc32)CN1C(=O)CC1CCCCC1 (centres unmarked) [Example 28, 1-(4-((5-(1H-pyrazol-4-yl)indolin-1-yl)methyl)-2-methylpyrrolidin-1-yl)-2-cyclohexylethanone] |
| < 10 | < 10 | < 10 | CC(C)CC(=O)N1CC(CN2CCc3cc(-c4cn[nH]c4)ccc32)CC1C (centres unmarked) [Example 29, 1-(4-((5-(1H-pyrazol-4-yl)indolin-1-yl)methyl)-2-methylpyrrolidin-1-yl)-3-methylbutan-1-one] |
| < 10 | < 10 | < 10 | O=C(Cc1ccccc1)N1CCC(CN2CCc3cc(-c4cn[nH]c4)ccc32)CC1 [Example 40, 1-(4-((5-(1H-pyrazol-4-yl)indolin-1-yl)methyl)piperidin-1-yl)-2-phenylethanone] |
| < 10 | < 10 | < 10 | O=C(CCc1ccccc1)N1CCC(CN2CCc3cc(-c4cn[nH]c4)ccc32)CC1 [Example 41, 1-(4-((5-(1H-pyrazol-4-yl)indolin-1-yl)methyl)piperidin-1-yl)-3-phenylpropan-1-one] |
| < 10 | < 10 | < 10 | O=C(C1CCCCC1)N1CCC(CN2CCc3cc(-c4cn[nH]c4)ccc32)CC1 [Example 42, (4-((5-(1H-pyrazol-4-yl)indolin-1-yl)methyl)piperidin-1-yl)(cyclohexyl)methanone] |
| < 10 | < 10 | < 10 | O=C(CC1CCCCC1)N1CCC(CN2CCc3cc(-c4cn[nH]c4)ccc32)CC1 [Example 43, 1-(4-((5-(1H-pyrazol-4-yl)indolin-1-yl)methyl)piperidin-1-yl)-2-cyclohexylethanone] |
